How the values were obtained:
[1] = tested on: acetic acid-induced abdominal writhing; assay: acetic acid-induced abdominal writhing technique (peripheral analgesic); format: in vivo; details: for Potency: Relative to indomethacin; for % Inhibition/protection / Writing reflex ± SEM: in vivo; on % Inhibition/protection: test concentration or dose not given here; on Writing reflex ± SEM: test concentration or dose not given here
COX-1 = COX-1 (Homo sapiens, UniProt P23219); assay: COX-1/2 bio-assay: COX-1; format: biochemical; details: read-out: IC50 ± SD, COX-1
Chain of COX-1 (P23219 24-599): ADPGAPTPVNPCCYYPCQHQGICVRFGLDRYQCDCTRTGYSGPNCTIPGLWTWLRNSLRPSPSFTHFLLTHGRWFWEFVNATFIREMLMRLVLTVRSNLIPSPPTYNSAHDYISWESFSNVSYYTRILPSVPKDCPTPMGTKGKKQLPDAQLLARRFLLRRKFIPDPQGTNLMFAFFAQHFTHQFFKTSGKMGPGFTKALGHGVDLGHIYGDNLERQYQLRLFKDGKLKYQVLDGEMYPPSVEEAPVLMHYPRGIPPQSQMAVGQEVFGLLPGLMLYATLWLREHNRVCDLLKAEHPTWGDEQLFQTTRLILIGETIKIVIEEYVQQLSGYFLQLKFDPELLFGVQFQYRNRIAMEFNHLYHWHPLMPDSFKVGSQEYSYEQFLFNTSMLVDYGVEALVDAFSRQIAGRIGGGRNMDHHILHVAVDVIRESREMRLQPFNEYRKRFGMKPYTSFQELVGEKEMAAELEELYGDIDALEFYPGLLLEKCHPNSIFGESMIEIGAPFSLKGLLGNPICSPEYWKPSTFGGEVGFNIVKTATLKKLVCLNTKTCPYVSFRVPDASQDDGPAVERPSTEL
From the text: (§1) Cyclooxygenases (COX) are the key enzymes capable of the conversion of arachidonic acid to prostaglandins.

COX-2 = target: T1, COX-2 (Homo sapiens, UniProt P35354); assay: COX-1/2 bio-assay: COX-2; format: biochemical; details: for IC50: read-out: IC50 ± SD, COX-2; for SI(COX-2/COX-1): selectivity index COX-2/COX-1
T1 sequence (P35354 18-604): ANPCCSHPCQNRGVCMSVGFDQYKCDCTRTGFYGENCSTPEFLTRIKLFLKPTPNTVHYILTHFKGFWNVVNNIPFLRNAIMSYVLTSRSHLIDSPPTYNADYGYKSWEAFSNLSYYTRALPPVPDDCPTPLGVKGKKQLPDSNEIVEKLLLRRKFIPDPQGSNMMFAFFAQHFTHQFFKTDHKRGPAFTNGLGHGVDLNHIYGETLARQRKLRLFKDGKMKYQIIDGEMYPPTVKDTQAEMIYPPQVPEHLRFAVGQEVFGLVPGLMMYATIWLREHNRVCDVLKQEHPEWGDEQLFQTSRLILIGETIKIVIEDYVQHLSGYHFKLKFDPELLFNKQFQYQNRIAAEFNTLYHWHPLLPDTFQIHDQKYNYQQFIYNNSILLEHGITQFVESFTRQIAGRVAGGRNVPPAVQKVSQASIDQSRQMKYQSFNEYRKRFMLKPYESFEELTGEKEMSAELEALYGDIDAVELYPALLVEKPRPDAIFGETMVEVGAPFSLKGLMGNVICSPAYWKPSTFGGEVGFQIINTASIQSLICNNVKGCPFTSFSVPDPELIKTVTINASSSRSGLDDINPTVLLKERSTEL
From the text: as §1

[2] = tested on: carrageenan-induced paw edema; assay: carrageenan-induced paw edema technique (anti-inflammatory); format: in vivo; details: for Observed (1/property): 1/(% inhibition of edema thickness at 3 h effect); on Observed (1/property): test concentration or dose not given here; on Potency (% Inhibition relative to indomethacin at 3 h effect): test concentration or dose not given here
From the text: Anti-inflammatory properties of the ibuprofen-amino acid conjugate (5a-j) and ibuprofen-amino acid-4-aminophenol conjugates 7a-j were studied by the standard carrageenan-induced paw edema technique (Naumov, R. N. et al., Bioorg. Med. Chem. Lett. 2015, 25, 2314-2320; Tiwari, A. D. et al., Org. Biomol. Chem. 2014, 12, 7238-7249).

hot plate = hot plate technique (central analgesic); format: in vivo; details: for Potency: Relative to indomethacin at 120 min.
animal gastric mucosa = assay: ulcerogenic liability; format: in vivo; details: in vivo
[3] = % inhibition of edema thickness at 3 h effect, Table 7
[4] = anti-inflammatory property (% inhibition of edema at 3 h), Table 8

SMILES	Potency [1]	% Inhibition/protection [1]	Writing reflex ± SEM [1]	IC50 (COX-1)	IC50 (COX-2)	SI(COX-2/COX-1) (COX-2)	melting point	Observed (1/property) ([2]; Table 7)	% inhibition of edema ([2]; 1 h)	Mean edema thickness ([2]; 1 h)	% inhibition of edema ([2]; 2 h)	Mean edema thickness ([2]; 2 h)	% inhibition of edema ([2]; 3 h)	Mean edema thickness ([2]; 3 h)	% inhibition of edema ([2]; 4 h)	Mean edema thickness ([2]; 4 h)	% inhibition of edema ([2]; 24 h)	Mean edema thickness ([2]; 24 h)	Observed property [2, 3]	Observed property [2, 4]	also measured
CC[C@H](C)[C@@H](NC(=O)C(C)c1ccc(CC(C)C)cc1)C(=O)Nc1ccc(O)cc1 (some centres unmarked) [Compound 7f]	155	85.3%	14.3 ± 0.8	4.86 ± 0.24 µM	141 ± 11.1 µM	29.0	205 °C	0.01111	42%	0.71 ± 0.01 mm	48%	0.79 ± 0.04 mm	90%	0.13 ± 0.02 mm	16%	1.05 ± 0.05 mm	42%	0.11 ± 0.02 mm	90%	90%	Potency (% Inhibition relative to indomethacin at 3 h effect) [2]: 113%; % protection (hot plate; After 30 min.): (64.5) %; Latency period ± SEM (hot plate; After 30 min.): 3.98 ± 0.06 s; % protection (hot plate; After 60 min.): (74.0) %; Latency period ± SEM (hot plate; After 60 min.): 3.88 ± 0.02 s; % protection (hot plate; After 90 min.): (76.4) %; Latency period ± SEM (hot plate; After 90 min.): 3.88 ± 0.04 s; % protection (hot plate; After 120 min.): (164.4) %; Latency period ± SEM (hot plate; After 120 min.): 5.79 ± 0.04 s; Potency (hot plate): 290; potency, central analgesic properties (hot plate; in vivo): 2.9 folds of indomethacin; % Incidence of ulcer divided by 10 (animal gastric mucosa): 0; Average of ulcer number (animal gastric mucosa): 0; Average severity of ulcer (animal gastric mucosa): 0; Number of animals with ulcer (animal gastric mucosa): 0; Ulcer index (animal gastric mucosa): 0
CC(C)Cc1ccc(C(C)C(=O)N[C@H](C(=O)Nc2ccc(O)cc2)C(C)C)cc1 (stereo partly drawn) [Compound 7h, (2S)-N-(4-Hydroxyphenyl)-2-(2-(4-isobutylphenyl)propanamido)-3-methylbutanamide]	137	75.3%	24.0 ± 0.4	10.4 ± 0.51 µM	133 ± 9.4 µM	12.8	202.2 °C	0.01333	11%	1.09 ± 0.06 mm	54%	0.69 ± 0.05 mm	75%	0.32 ± 0.03 mm	48%	0.65 ± 0.04 mm	21%	0.15 ± 0.03 mm	75%	75%	Potency (% Inhibition relative to indomethacin at 3 h effect) [2]: 94%; % protection (hot plate; After 30 min.): (58.3) %; Latency period ± SEM (hot plate; After 30 min.): 3.83 ± 0.02 s; % protection (hot plate; After 60 min.): (62.3) %; Latency period ± SEM (hot plate; After 60 min.): 3.62 ± 0.03 s; % protection (hot plate; After 90 min.): (58.6) %; Latency period ± SEM (hot plate; After 90 min.): 3.49 ± 0.18 s; % protection (hot plate; After 120 min.): (50.7) %; Latency period ± SEM (hot plate; After 120 min.): 3.30 ± 0.02 s; Potency (hot plate): 90; % Incidence of ulcer divided by 10 (animal gastric mucosa): 0; Average of ulcer number (animal gastric mucosa): 0; Average severity of ulcer (animal gastric mucosa): 0; Number of animals with ulcer (animal gastric mucosa): 0; Ulcer index (animal gastric mucosa): 0

— patent publication US11850220B2 (Augusta University Research Institute, Inc., priority 2020, dated 2023)
